Reference: patent US9247759B2, “Identification of human T2R receptors that respond to bitter compounds that elicit the bitter taste in compositions, and the use thereof in assays to identify compounds that inhibit (block) bitter taste in compositions and use thereof” (SENOMYX, INC., priority 2007, dated 2016)
Read-outs that look alike come from different tables or passages of the source.

Target: hT2R8 (Homo sapiens (Human), UniProt Q9NYW2)
Experiment: hT2R8 antagonist high-throughput FLIPR assay, stable cell line with G16g44, agonist andrographolide
Assay type: cell-based
Excerpt: After a ligand is identified for a particular hT2R, a HEK293 cell line stably expressing both the hT2R and G16gust44 are generated, facilitating future screening assays to identify other ligands that activate the particular hT2R or which modulate (block or enhance) the activation of this hT2R by another bitter ligand such as a bitter compound contained in coffee. This avoids the need for transient transfection.
(§1) To identify antagonists, cell lines stably expressing hT2R8 and hT2R14, respectively, together with the promiscuous chimeric G16g44 protein were generated as described in previous patent applications. A high-throughput assay was established using the stable cell lines and FLIPR (Fluorescent Imaging Plate Reader). An agonist of hT2R8 or hT2R14 was used to activate the receptors up to 70-80% of their respective maximal activity. For hT2R8, the agonist used was andrographolide (200 λM); for hT2R14, it was aristolochic acid (3 μM). To identify antagonists, compounds with diverse chemical structures were added together with the agonist.
as §1, with “hT2R8” for “hT2R8 and hT2R14, respectively,”, “hT2R8” for “hT2R8 or hT2R14”, “(200” for “(200 λM); for hT2R14, it was aristolochic acid (3”

[1] = read-out: IC50 on hT2R8 bitter receptor
[2] = table after Example 10-97, read-out: hT2R8 IC50
[3] = table after Example 12-37, read-out: hT2R8 IC50

Chain of hT2R8 (Q9NYW2 whole entry): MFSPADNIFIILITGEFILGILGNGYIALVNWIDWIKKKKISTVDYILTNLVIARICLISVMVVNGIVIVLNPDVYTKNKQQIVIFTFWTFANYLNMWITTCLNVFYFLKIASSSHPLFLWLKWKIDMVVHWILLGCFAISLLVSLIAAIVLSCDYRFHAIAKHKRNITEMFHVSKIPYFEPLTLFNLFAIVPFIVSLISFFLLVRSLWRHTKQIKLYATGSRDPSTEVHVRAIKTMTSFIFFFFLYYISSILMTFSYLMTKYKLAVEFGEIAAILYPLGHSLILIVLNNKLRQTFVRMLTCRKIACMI

IC50 [1] [µM]	IC50 [2] [µM]	IC50 (Table A, read-out: hT2R8 IC50) [µM]	also measured	Compound
0.17	0.484	–	–	Cc1noc(C)c1Cn1cc(N2C(=O)NC(CCCc3ccccc3)C2=O)cn1 (centres unmarked) [Example 10-46, 3-(1-((3,5-dimethylisoxazol-4-yl)methyl)-1H-pyrazol-4-yl)-5-(3-phenylpropyl)imidazolidine-2,4-dione]
0.02	–	–	–	Cc1noc(C)c1Cn1cc(N2C(=O)[C@H](C)N(Cc3cccc(O)c3)C2=O)cn1 [Example 12-6, (S)-3-(1-((3,5-dimethylisoxazol-4-yl)methyl)-1H-pyrazol-4-yl)-1-(3-hydroxybenzyl)-5-methylimidazolidine-2,4-dione]
–	–	2.13	–	Cc1noc(C)c1Cn1cc(N(C)C(=O)C(C)c2ccccc2)cn1 (centres unmarked) [Example 4-97, N-(1-((3,5-dimethylisoxazol-4-yl)methyl)-1H-pyrazol-4-yl)-N-methyl-2-phenylpropanamide]
–	–	1.25	–	COC(=O)c1sccc1S(=O)(=O)Nc1cnn(Cc2c(C)noc2C)c1 [Example 4-104, methyl 3-(N-(1-((3,5-dimethylisoxazol-4-yl)methyl)-1H-pyrazol-4-yl)sulfamoyl)thiophene-2-carboxylate]
–	–	1.87	–	COc1cccc(C(=O)Nc2nnn(Cc3c(C)noc3C)n2)c1 [Example 4-114, N-(2-((3,5-dimethylisoxazol-4-yl)methyl)-2H-tetrazol-5-yl)-3-methoxybenzamide]
0.51	0.513	–	–	Cc1noc(C)c1Cn1cc(N2C(=O)NC(Cc3ccc(O)c(O)c3)C2=O)cn1 (centres unmarked) [Example 10-60, 5-(3,4-dihydroxybenzyl)-3-(1-((3,5-dimethylisoxazol-4-yl)methyl)-1H-pyrazol-4-yl)imidazolidine-2,4-dione]
3.03	6.15	–	–	Cc1noc(C)c1Cn1cc(-n2c(=O)[nH]c(=O)n(CCc3ccccc3)c2=O)cn1 [Example 9-8, 1-(1-((3,5-dimethylisoxazol-4-yl)methyl)-1H-pyrazol-4-yl)-3-phenethyl-1,3,5-triazinane-2,4,6-trione]
1	0.912	–	–	Cc1noc(C)c1Cn1cc(N2C(=O)NC(CC(C)C)C2=O)cn1 (centres unmarked) [Example 10-61, 3-(1-((3,5-dimethylisoxazol-4-yl)methyl)-1H-pyrazol-4-yl)-5-isobutylimidazolidine-2,4-dione]
–	–	0.98	–	COc1ccc(O)c(C(=O)Nc2cnn(Cc3c(C)noc3C)c2)c1 [Example 4-27, N-(1-((3,5-dimethylisoxazol-4-yl)methyl)-1H-pyrazol-4-yl)-2-hydroxy-5-methoxybenzamide]
–	–	–	IC50 [3]: 0.2 µM	COc1ccc(OC)c(CN2C(=O)N(c3cnn(Cc4c(C)noc4C)c3)C(=O)C2(C)C)c1 [Example 12-54, 1-(2,5-dimethoxybenzyl)-3-(1-((3,5-dimethylisoxazol-4-yl)methyl)-1H-pyrazol-4-yl)-5,5-dimethylimidazolidine-2,4-dione]
–	–	–	IC50 [3]: 0.19 µM	COc1ccc(CN2C(=O)N(c3cnn(Cc4c(C)noc4C)c3)C(=O)C2(C)C)nc1 [Example 12-51, 3-(1-((3,5-dimethylisoxazol-4-yl)methyl)-1H-pyrazol-4-yl)-1-((5-methoxypyridin-2-yl)methyl)-5,5-dimethylimidazolidine-2,4-dione]
–	–	–	IC50 [3]: 0.25 µM	COc1cccc(CCN2C(=O)N(c3cnn(Cc4c(C)noc4C)c3)C(=O)C2(C)C)c1 [Example 12-60, 3-(1-((3,5-dimethylisoxazol-4-yl)methyl)-1H-pyrazol-4-yl)-1-(3-methoxyphenethyl)-5,5-dimethylimidazolidine-2,4-dione]
0.01	–	–	–	Cc1noc(C)c1Cn1cc(N2C(=O)N(Cc3ccc(F)c(O)c3)C(C)(C)C2=O)cn1 [Example 12-19, 3-(1-((3,5-dimethylisoxazol-4-yl)methyl)-1H-pyrazol-4-yl)-1-(4-fluoro-3-hydroxybenzyl)-5,5-dimethylimidazolidine-2,4-dione]
0.35	–	–	–	Cc1noc(C)c1Cn1cc(N2C(=O)N(CCOc3ccccc3)C(C)(C)C2=O)cn1 [Example 12-27, 3-(1-((3,5-dimethylisoxazol-4-yl)methyl)-1H-pyrazol-4-yl)-5,5-dimethyl-1-(2-phenoxyethyl)imidazolidine-2,4-dione]
0.07	0.073	–	–	COc1cccc(CN2CC(=O)N(c3cnn(Cc4c(C)noc4C)c3)C2=O)c1 [Example 10-6, 3-(1-((3,5-dimethylisoxazol-4-yl)methyl)-1H-pyrazol-4-yl)-1-(3-methoxybenzyl)imidazolidine-2,4-dione]
–	–	–	IC50 [3]: 2.85 µM	Cc1noc(C)c1Cn1cc(N2C(=O)N(Cc3cccc(OCC(=O)O)c3)C(C)(C)C2=O)cn1 [Example 12-90, 2-(3-((3-(1-((3,5-dimethylisoxazol-4-yl)methyl)-1H-pyrazol-4-yl)-5,5-dimethyl-2,4-dioxoimidazolidin-1-yl)methyl)phenoxy)acetic acid]

IC50 [1] [µM]	IC50 [2] [µM]	IC50 (Table A, read-out: hT2R8 IC50) [µM]	also measured	Compound
–	–	0.1	–	Cc1noc(C)c1Cn1cc(NC(=O)c2cc3c(cc2Cl)OCCO3)cn1 [Example 4-90, 7-chloro-N-(1-((3,5-dimethylisoxazol-4-yl)methyl)-1H-pyrazol-4-yl)-2,3-dihydrobenzo[b][1,4]dioxine-6-carboxamide]
–	–	–	IC50 [3]: 0.36 µM	Cc1noc(C)c1Cn1cc(N2C(=O)N(Cc3ccc(CO)cc3)C(C)(C)C2=O)cn1 [Example 12-88, 3-(1-((3,5-dimethylisoxazol-4-yl)methyl)-1H-pyrazol-4-yl)-1-(4-(hydroxymethyl)benzyl)-5,5-dimethylimidazolidine-2,4-dione]
–	–	0.5	–	CCC(C(=O)Nc1cnn(Cc2c(C)noc2C)c1)c1ccccc1 (centres unmarked) [Example 4-37, N-(1-((3,5-dimethylisoxazol-4-yl)methyl)-1H-pyrazol-4-yl)-2-phenylbutanamide]
0.02	–	–	–	Cc1noc(C)c1Cn1cc(N2C(=O)N(Cc3cccc(O)c3)C3(CC3)C2=O)cn1 [Example 12-15, 6-(1-((3,5-dimethylisoxazol-4-yl)methyl)-1H-pyrazol-4-yl)-4-(3-hydroxybenzyl)-4,6-diazaspiro[2.4]heptane-5,7-dione]
–	–	–	IC50 [3]: 0.3 µM	COc1cccc(CN2C(=O)N(c3cnn(Cc4c(C)noc4C)c3)C(=O)C2(C)C)c1OC [Example 12-64, 1-(2,3-dimethoxybenzyl)-3-(1-((3,5-dimethylisoxazol-4-yl)methyl)-1H-pyrazol-4-yl)-5,5-dimethylimidazolidine-2,4-dione]
–	–	5.24	–	COc1ccc(OC)c(NC(=S)Nc2cnn(Cc3c(C)noc3C)c2)c1 [Example 4-113, 1-(2,5-dimethoxyphenyl)-3-(1-((3,5-dimethylisoxazol-4-yl)methyl)-1H-pyrazol-4-yl)thiourea]
–	0.069	–	IC50 (unit uM, read-out: IC50 on hT2R08 bitter receptor): 0.07 µM	Cc1noc(C)c1Cn1cc(N2C(=O)CN(Cc3ccccc3O)C2=O)cn1 [Example 10-11, 3-(1-((3,5-dimethylisoxazol-4-yl)methyl)-1H-pyrazol-4-yl)-1-(2-hydroxybenzyl)imidazolidine-2,4-dione]
–	–	8.6	–	CO[C@H](C(=O)Nc1cnn(Cc2c(C)noc2C)c1)c1ccccc1 [Example 4-67, (S)-N-(1-((3,5-dimethylisoxazol-4-yl)methyl)-1H-pyrazol-4-yl)-2-methoxy-2-phenylacetamide]
0.14	0.141	–	–	CNC(=O)c1cccc(CN2CC(=O)N(c3cnn(Cc4c(C)noc4C)c3)C2=O)c1 [Example 10-9, 3-((3-(1-((3,5-dimethylisoxazol-4-yl)methyl)-1H-pyrazol-4-yl)-2,4-dioxoimidazolidin-1-yl)methyl)-N-methylbenzamide]
0.8	0.81	–	–	Cc1noc(C)c1Cn1cc(N2C(=O)N(C)C(C)(C)C2=O)cn1 [Example 10-52, 3-(1-((3,5-dimethylisoxazol-4-yl)methyl)-1H-pyrazol-4-yl)-1,5,5-trimethylimidazolidine-2,4-dione]
0.41	0.412	–	–	Cc1noc(C)c1Cn1cc(N2C(=O)CN(CCc3ccc(O)cc3)C2=O)cn1 [Example 10-86, 3-(1-((3,5-dimethylisoxazol-4-yl)methyl)-1H-pyrazol-4-yl)-1-(4-hydroxyphenethyl)imidazolidine-2,4-dione]
0.01	0.027	–	–	Cc1noc(C)c1Cn1cc(N2C(=O)CN(CCc3ccc(F)cc3)C2=O)cn1 [Example 10-84, 3-(1-((3,5-dimethylisoxazol-4-yl)methyl)-1H-pyrazol-4-yl)-1-(4-fluorophenethyl)imidazolidine-2,4-dione]
–	–	1.3	–	Cc1noc(C)c1Cn1cc(NC(=O)c2ccc3c(c2)OC(F)(F)O3)cn1 [Example 4-78, N-(1-((3,5-dimethylisoxazol-4-yl)methyl)-1H-pyrazol-4-yl)-2,2-difluorobenzo[d][1,3]dioxole-5-carboxamide]
–	–	2.62	–	Cc1noc(C)c1Cn1cc(NC(=O)c2ccccc2)cn1 [Example 4-24, N-(1-((3,5-dimethylisoxazol-4-yl)methyl)-1H-pyrazol-4-yl)benzamide]
–	–	–	IC50 [3]: 0.23 µM	COC(=O)c1ccc(CN2C(=O)N(c3cnn(Cc4c(C)noc4C)c3)C(=O)C2(C)C)cc1 [Example 12-57, methyl 4-((3-(1-((3,5-dimethylisoxazol-4-yl)methyl)-1H-pyrazol-4-yl)-5,5-dimethyl-2,4-dioxoimidazolidin-1-yl)methyl)benzoate]
